Data published in ChEMBL document CHEMBL4622868, “Design and synthesis of amphiphilic 2-hydroxybenzylphosphonium salts with antimicrobial and antitumor dual action” (Bioorg Med Chem Lett, 2020).
Activity calls are given as the source filed them. The rule behind the calls is not given here.

How the values were obtained:
Staphylococcus aureus [1] = assay: Antibacterial activity against Staphylococcus aureus ATCC 209p; type: functional
Staphylococcus aureus [2] = assay: Bactericidal activity against Staphylococcus aureus ATCC 209p; type: functional
Bacillus cereus [3] = assay: Antibacterial activity against Bacillus cereus; type: functional
Bacillus cereus [4] = assay: Bactericidal activity against Bacillus cereus; type: functional
[5] = test system: Trichophyton mentagrophytes; assay: Antifungal activity against Trichophyton mentagrophytes; type: functional
[6] = test system: Trichophyton mentagrophytes; assay: Fungicidal activity against Trichophyton mentagrophytes; type: functional
Candida albicans [7] = assay: Antifungal activity against Candida albicans; type: functional
Candida albicans [8] = assay: Fungicidal activity against Candida albicans; type: functional
Staphylococcus aureus [9] = assay: Antibacterial activity against clinical isolate amoxicillin and ciprofloxacin resistance Staphylococcus aureus; type: functional
Staphylococcus aureus [10] = assay: Bactericidal activity against clinical isolate amoxicillin and ciprofloxacin resistance Staphylococcus aureus; type: functional
Staphylococcus aureus [11] = assay: Antibacterial activity against clinical isolate amoxicillin resistance Staphylococcus aureus; type: functional
Staphylococcus aureus [12] = assay: Bactericidal activity against clinical isolate amoxicillin resistance Staphylococcus aureus; type: functional
[13] = Hemolytic activity against RBC (unknown origin) at 480 uM; type: ADME, cell-based, Erythrocyte; settings: red blood cells (erythrocytes); read-out: Activity
[14] = Hemolytic activity against RBC (unknown origin) at 240 uM; type: ADME, cell-based, Erythrocyte; settings: red blood cells (erythrocytes); read-out: Activity
[15] = Hemolytic activity against RBC (unknown origin) at 120 uM; type: ADME, cell-based, Erythrocyte; settings: red blood cells (erythrocytes); read-out: Activity
[16] = Hemolytic activity against RBC (unknown origin) at 60 uM; type: ADME, cell-based, Erythrocyte; settings: red blood cells (erythrocytes); read-out: Activity
[17] = Hemolytic activity against RBC (unknown origin) at 40 uM; type: ADME, cell-based, Erythrocyte; settings: red blood cells (erythrocytes); read-out: Activity
[18] = Hemolytic activity against RBC (unknown origin) at 20 uM; type: ADME, cell-based, Erythrocyte; settings: red blood cells (erythrocytes); read-out: Activity
[19] = Hemolytic activity against RBC (unknown origin) at 10 uM; type: ADME, cell-based, Erythrocyte; settings: red blood cells (erythrocytes); read-out: Activity
[20] = Hemolytic activity against RBC (unknown origin) at 5 uM; type: ADME, cell-based, Erythrocyte; settings: red blood cells (erythrocytes); read-out: Activity
[21] = Hemolytic activity against RBC (unknown origin) at 1 uM; type: ADME, cell-based, Erythrocyte; settings: red blood cells (erythrocytes); read-out: Activity
M-HeLa = assay: Cytotoxicity against human M-HeLa cells; type: functional, cell-based
MCF7 = assay: Cytotoxicity against human MCF7 cells; type: functional, cell-based
HepG2 = assay: Cytotoxicity against human HepG2 cells; type: functional, cell-based
PANC-1 = assay: Cytotoxicity against human PANC1 cells; type: functional, cell-based
[22] = Cytotoxicity against human Chang cells; type: cell-based
[23] = Selectivity index, ratio of IC50 for human Chang cells to IC50 for human M-HeLa cells
[24] = Selectivity index, ratio of IC50 for human Chang cells to IC50 for human MCF7 cells
[25] = Selectivity index, ratio of IC50 for human Chang cells to IC50 for human HepG2 cells
[26] = Selectivity index, ratio of IC50 for human Chang cells to IC50 for human PANC1 cells

Structure (SMILES) | MIC (Staphylococcus aureus [1]) [µM] | MBC (Staphylococcus aureus [2]) | MIC (Bacillus cereus [3]) | MBC (Bacillus cereus [4]) | MIC [5] | MFC [6] | MIC (Candida albicans [7]) | MFC (Candida albicans [8]) | MIC (Staphylococcus aureus [9]) | MBC (Staphylococcus aureus [10]) | MIC (Staphylococcus aureus [11]) | MBC (Staphylococcus aureus [12]) | hemolysis at 480 µM [13] [%] | hemolysis at 240 µM [14] [%] | hemolysis at 120 µM [15] [%] | hemolysis at 60 µM [16] [%] | hemolysis at 40 µM [17] [%] | IC50 (HepG2; read-out: IC50) [µM] | IC50 (PANC-1) [µM] | IC50 [22] [µM] | also measured
CCCCCCCC[P+](Cc1ccccc1O)(c1ccccc1)c1ccccc1.[Cl-] | 8.8 | 8.8 µM | 17.7 µM | 17.7 µM | 284 µM | inactive | 284 µM | inactive | 35.4 µM | 142 µM | 17.7 µM | 35.4 µM | 8.5 | 4.8 | 2.3 | 0.6 | 0.4 | 25.7 | 12.5 | 46.3 | hemolysis at 20 µM [18]: 0%; hemolysis at 10 µM [19]: 0%; hemolysis at 5 µM [20]: 0%; hemolysis at 1 µM [21]: 0%; IC50 (M-HeLa): 3.7 µM; IC50 (MCF7): 12.5 µM; Ratio IC50 [23]: 12.5; Ratio IC50 [24]: 3.7; Ratio IC50 [25]: 1.8; Ratio IC50 [26]: 3.7
CC/C(=C(\c1ccccc1)c1ccc(OCCN(C)C)cc1)c1ccccc1 [TAMOXIFEN] |  |  |  |  |  |  |  |  |  |  |  |  |  |  |  |  |  |  |  | 46.2 | IC50 (HepG2): 23.4 µM
CCCCCCC[P+](Cc1ccccc1O)(c1ccccc1)c1ccccc1.[Cl-] | 18.3 | 18.3 µM | 36.6 µM | 146 µM | 586 µM | inactive | 586 µM | inactive | 36.6 µM | 146 µM | 73.2 µM | 73.2 µM | 3.6 | 1.9 | 0.4 | 0.3 | 0.3 | 26.3 | 40 | 41.6 | hemolysis at 20 µM [18]: 0.3%; hemolysis at 10 µM [19]: 0.2%; hemolysis at 5 µM [20]: 0%; hemolysis at 1 µM [21]: 0%; IC50 (M-HeLa): 5.5 µM; IC50 (MCF7): 32.8 µM; Ratio IC50 [23]: 7.6; Ratio IC50 [24]: 1.3; Ratio IC50 [25]: 1.6; Ratio IC50 [26]: 1.04
C=CCCCC[P+](Cc1ccccc1O)(c1ccccc1)c1ccccc1 | 609 | inactive | inactive | inactive | inactive | inactive | inactive | inactive | inactive | inactive | inactive | inactive |  |  |  |  |  |  |  |  | 
CCCCCCCCCCCCCCCC[P+](Cc1ccccc1O)(c1ccccc1)c1ccccc1.[Cl-] | 3.4 | 28.2 µM | 14.1 µM | 452 µM | 56.6 µM | inactive | 56.6 µM | inactive | 28.2 µM | inactive | 14.1 µM | 113 µM | 100 | 100 | 100 | 98 | 2.5 | 12.6 | 25.7 | 45.2 | hemolysis at 20 µM [18]: 2.1%; hemolysis at 10 µM [19]: 0.9%; hemolysis at 5 µM [20]: 0.3%; hemolysis at 1 µM [21]: 0.3%; IC50 (M-HeLa): 3.2 µM; IC50 (MCF7): 13.2 µM; Ratio IC50 [23]: 14.1; Ratio IC50 [24]: 3.4; Ratio IC50 [25]: 3.6; Ratio IC50 [26]: 1.8
COc1cccc2c1C(=O)c1c(O)c3c(c(O)c1C2=O)C[C@@](O)(C(=O)CO)C[C@@H]3O[C@H]1C[C@H](N)[C@H](O)[C@H](C)O1 [DOXORUBICIN] |  |  |  |  |  |  |  |  |  |  |  |  |  |  |  |  |  | 3.3 | 3.2 | 3 | 
CCCCCCCCCCCCCC[P+](Cc1ccccc1O)(c1ccccc1)c1ccccc1.[Cl-] | 3.6 | 14.8 µM | 3.6 µM | 478 µM | 478 µM | inactive | 478 µM | inactive | 7.2 µM | 28.8 µM | 7.2 µM | 28.8 µM | 100 | 100 | 100 | 74 | 0.3 | 6.6 | 25 | 42.3 | hemolysis at 20 µM [18]: 0%; hemolysis at 10 µM [19]: 0%; hemolysis at 5 µM [20]: 0%; hemolysis at 1 µM [21]: 0%; IC50 (M-HeLa): 3.5 µM; IC50 (MCF7): 6.6 µM; Ratio IC50 [23]: 12.1; Ratio IC50 [24]: 6.4; Ratio IC50 [25]: 6.4; Ratio IC50 [26]: 1.7
